Results: patent publication US9175003B2, “Substituted azoanthracene derivatives and intermediates for preparation thereof” (TransTech Pharma, LLC, priority 2009, dated 2015)

These molecules were tested against human GLP-1 receptor (Homo sapiens (Human), UniProt P43220). Details: read-out: Mean EC50; cAMP, HTRF detection, 30 min at 37° C., HEK-293 cells expressing cloned human GLP-1 receptor.
Sequence of human GLP-1 receptor (P43220 24-463): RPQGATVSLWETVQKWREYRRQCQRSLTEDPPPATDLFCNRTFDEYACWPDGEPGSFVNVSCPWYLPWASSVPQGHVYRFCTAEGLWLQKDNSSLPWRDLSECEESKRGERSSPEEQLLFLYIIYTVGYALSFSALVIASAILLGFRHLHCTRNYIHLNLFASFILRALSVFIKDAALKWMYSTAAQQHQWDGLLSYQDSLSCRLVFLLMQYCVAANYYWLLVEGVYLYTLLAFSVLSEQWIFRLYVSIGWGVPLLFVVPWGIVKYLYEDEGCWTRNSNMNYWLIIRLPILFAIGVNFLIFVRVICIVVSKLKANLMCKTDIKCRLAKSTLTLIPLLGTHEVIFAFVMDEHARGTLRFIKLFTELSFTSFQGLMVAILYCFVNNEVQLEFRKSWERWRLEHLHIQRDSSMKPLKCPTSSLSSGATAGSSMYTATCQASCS

| Compound | EC50 |
| --- | --- |
| Cc1cccc(NC(=O)N2Cc3cc4c(cc3C[C@H]2C(=O)N[C@@H](Cc2ccc(Oc3ccnc(C)c3C)cc2)C(=O)O)OC[C@H](c2ccc(OCc3ccc(Cl)c(Cl)c3)cc2)O4)c1 [Example 345, (S)-2-({(3S,8S)-3-[4-(3,4-Dichloro-benzyloxy)-phenyl]-7-m-tolylcarbamoyl-2,3,6,7,8,9-hexahydro-[1,4]dioxino[2,3-g]isoquinoline-8-carbonyl}-amino)-3-[4-(2,3-dimethyl-pyridin-4-yloxy)-phenyl]-propionic acid] | 255 nM |
| Cc1ncoc1C(=O)N1Cc2cc3c(cc2C[C@H]1C(=O)N[C@@H](Cc1ccc(-c2ccnc(C)c2C)cc1)C(=O)O)OC[C@H](c1ccc(OCc2ccc(Cl)c(Cl)c2)cc1)O3 [Example 238, (S)-2-{[(3S,8S)-3-[4-(3,4-Dichloro-benzyloxy)-phenyl]-7-(4-methyl-oxazole-5-carbonyl)-2,3,6,7,8,9-hexahydro-[1,4]dioxino[2,3-g]isoquinoline-8-carbonyl]-amino}-3-[4-(2,3-dimethyl-pyridin-4-yl)-phenyl]-propionic acid] | 146 nM |
| Cc1nc(CN2Cc3cc4c(cc3C[C@H]2C(=O)N[C@@H](Cc2ccc(-c3ccnc(C)c3C)cc2)C(=O)O)OC[C@H](c2ccc(OCc3ccc(Cl)c(Cl)c3)cc2)O4)c(C)o1 [Example 232, (S)-2-{[(3S,8S)-3-[4-(3,4-Dichloro-benzyloxy)-phenyl]-7-(2,5-dimethyl-oxazol-4-ylmethyl)-2,3,6,7,8,9-hexahydro-[1,4]dioxino[2,3-g]isoquinoline-8-carbonyl]-amino}-3-[4-(2,3-dimethyl-pyridin-4-yl)-phenyl]-propionic acid] | 133 nM |
| CCNc1nc(C)c(S(=O)(=O)N2Cc3cc4c(cc3C[C@H]2C(=O)N[C@@H](Cc2ccc(-c3ccc(C#N)cc3)cc2)C(=O)O)OC[C@H](c2ccc(OCc3ccc(Cl)c(Cl)c3)cc2)O4)s1 [Example 86, (S)-3-(4′-Cyano-biphenyl-4-yl)-2-{[(3S,8S)-3-[4-(3,4-dichloro-benzyloxy)-phenyl]-7-(2-ethylamino-4-methyl-thiazole-5-sulfonyl)-2,3,6,7,8,9-hexahydro-[1,4]dioxino[2,3-g]isoquinoline-8-carbonyl]-amino}-propionic acid] | 249 nM |
| Cc1ccc(NC(=O)N2Cc3cc4c(cc3C[C@H]2C(=O)N[C@@H](Cc2ccc(-c3ccnc(C)c3C)cc2)C(=O)O)OC[C@H](c2ccc(OCc3ccc(Cl)c(Cl)c3)cc2)O4)cc1 [Example 243, (S)-2-({(3S,8S)-3-[4-(3,4-Dichloro-benzyloxy)-phenyl]-7-p-tolylcarbamoyl-2,3,6,7,8,9-hexahydro-[1,4]dioxino[2,3-g]isoquinoline-8-carbonyl}-amino)-3-[4-(2,3-dimethyl-pyridin-4-yl)-phenyl]-propionic acid] | 92 nM |
| N#Cc1ccc(-c2ccc(C[C@H](NC(=O)[C@@H]3Cc4cc5c(cc4CN3S(=O)(=O)c3ccc(N4CCOCC4)nc3)OC(c3ccc(OCc4ccc(Cl)c(Cl)c4)cc3)CO5)C(=O)O)cc2)cc1 (stereo in doubt) [Example 112, (S)-3-(4′-Cyano-biphenyl-4-yl)-2-{[(S)-3-[4-(3,4-dichloro-benzyloxy)-phenyl]-7-(6-morpholin-4-yl-pyridine-3-sulfonyl)-2,3,6,7,8,9-hexahydro-[1,4]dioxino[2,3-g]isoquinoline-8-carbonyl]-amino}-propionic acid] | 48 nM |
| CC[C@@H](c1ccccc1)N1Cc2cc3c(cc2C[C@H]1C(=O)N[C@@H](Cc1ccc(Oc2cccnc2)cc1)C(=O)O)OC[C@H](c1ccc(OCc2ccc(Cl)c(Cl)c2)cc1)O3 [Example 185, (S)-2-{[(3S,8S)-3-[4-(3,4-Dichloro-benzyloxy)-phenyl]-7-((S)-1-phenyl-propyl)-2,3,6,7,8,9-hexahydro-[1,4]dioxino[2,3-g]isoquinoline-8-carbonyl]-amino}-3-[4-(pyridin-3-yloxy)-phenyl]-propionic acid] | 119 nM |
| CCC(C)(C)NC(=O)N1Cc2cc3c(cc2C[C@H]1C(=O)N[C@@H](Cc1ccc(Oc2ccnc(C)c2C)cc1)C(=O)O)OC[C@H](c1ccc(OCc2ccc(Cl)c(Cl)c2)cc1)O3 [Example 350, (S)-2-{[(3S,8S)-3-[4-(3,4-Dichloro-benzyloxy)-phenyl]-7-(1,1-dimethyl-propylcarbamoyl)-2,3,6,7,8,9-hexahydro-[1,4]dioxino[2,3-g]isoquinoline-8-carbonyl]-amino}-3-[4-(2,3-dimethyl-pyridin-4-yloxy)-phenyl]-propionic acid] | 212 nM |
| CCNc1nc(C)c(S(=O)(=O)N2Cc3cc4c(cc3C[C@H]2C(=O)N[C@@H](Cc2ccc(-c3ccc(C#N)cc3)cc2)C(=O)O)OCC(c2ccc(OCc3ccc(C)c(Cl)c3)cc2)O4)s1 (stereo in doubt) [Example 63, (S)-2-{[(S)-3-[4-(3-Chloro-4-methyl-benzyloxy)-phenyl]-7-(2-ethylamino-4-methyl-thiazole-5-sulfonyl)-2,3,6,7,8,9-hexahydro-[1,4]dioxino[2,3-g]isoquinoline-8-carbonyl]-amino}-3-(4′-cyano-biphenyl-4-yl)-propionic acid] | 277 nM |
| Cc1nccc(-c2ccc(C[C@H](NC(=O)[C@@H]3Cc4cc5c(cc4CN3Cc3ccccn3)O[C@@H](c3ccc(OCc4ccc(Cl)c(Cl)c4)cc3)CO5)C(=O)O)cc2)c1C [Example 175, (S)-2-({(3S,8S)-3-[4-(3,4-Dichloro-benzyloxy)-phenyl]-7-pyridin-2-ylmethyl-2,3,6,7,8,9-hexahydro-[1,4]dioxino[2,3-g]isoquinoline-8-carbonyl}-amino)-3-[4-(2,3-dimethyl-pyridin-4-yl)-phenyl]-propionic acid] | 5 nM |
| CC[C@H](NC(=O)N1Cc2cc3c(cc2C[C@H]1C(=O)N[C@@H](Cc1ccc(-c2ccnc(C)c2C)cc1)C(=O)O)OC[C@H](c1ccc(OCc2ccc(Cl)c(Cl)c2)cc1)O3)c1ccccc1 [Example 245, (S)-2-{[(3S,8S)-3-[4-(3,4-Dichloro-benzyloxy)-phenyl]-7-((S)-1-phenyl-propylcarbamoyl)-2,3,6,7,8,9-hexahydro-[1,4]dioxino[2,3-g]isoquinoline-8-carbonyl]-amino}-3-[4-(2,3-dimethyl-pyridin-4-yl)-phenyl]-propionic acid] | 203 nM |

The remaining lines, values ahead:

| EC50 | Compound |
| --- | --- |
| 57 nM | Cc1nc(C(=O)N2Cc3cc4c(cc3C[C@H]2C(=O)N[C@@H](Cc2ccc(-c3ccnc(C)c3C)cc2)C(=O)O)OC[C@H](c2ccc(OCc3cc(F)ccc3F)cc2)O4)c(C)o1 [Example 356, (S)-2-{[(3S,8S)-3-[4-(2,5-Difluoro-benzyloxy)-phenyl]-7-(2,5-dimethyl-oxazole-4-carbonyl)-2,3,6,7,8,9-hexahydro-[1,4]dioxino[2,3-g]isoquinoline-8-carbonyl]-amino}-3-[4-(2,3-dimethyl-pyridin-4-yl)-phenyl]-propionic acid] |
| 84 nM | Cc1nccc(-c2ccc(C[C@H](NC(=O)[C@@H]3Cc4cc5c(cc4CN3C(=O)OC(C)(C)C)O[C@H](c3ccc(OCc4ccc(Cl)c(Cl)c4)cc3)CO5)C(=O)O)cc2)c1C [Example 427, (3R,8S)-8-{(S)-1-Carboxy-2-[4-(2,3-dimethyl-pyridin-4-yl)-phenyl]-ethylcarbamoyl}-3-[4-(3,4-dichloro-benzyloxy)-phenyl]-2,3,8,9-tetrahydro-6H-[1,4]dioxino[2,3-g]isoquinoline-7-carboxylic acid tert-butyl ester] |
| 38 nM | Cc1nc(C(=O)N2Cc3cc4c(cc3C[C@H]2C(=O)N[C@@H](Cc2ccc(-c3ccnc(C)c3C)cc2)C(=O)O)OC[C@H](c2ccc(OCc3cncc(Cl)c3)cc2)O4)c(C)o1 [Example 376, (S)-2-{[(3S,8S)-3-[4-(5-Chloro-pyridin-3-ylmethoxy)-phenyl]-7-(2,5-dimethyl-oxazole-4-carbonyl)-2,3,6,7,8,9-hexahydro-[1,4]dioxino[2,3-g]isoquinoline-8-carbonyl]-amino}-3-[4-(2,3-dimethyl-pyridin-4-yl)-phenyl]-propionic acid] |
| 213 nM | Cc1nc(C(=O)N2Cc3cc4c(cc3C[C@H]2C(=O)N[C@@H](Cc2ccc(-c3ccnc(C)c3C)cc2)C(=O)O)OC[C@H](c2ccc(OCC3CCCCC3)cc2)O4)c(C)o1 [Example 405, (S)-2-{[(3S,8S)-3-(4-Cyclohexylmethoxy-phenyl)-7-(2,5-dimethyl-oxazole-4-carbonyl)-2,3,6,7,8,9-hexahydro-[1,4]dioxino[2,3-g]isoquinoline-8-carbonyl]-amino}-3-[4-(2,3-dimethyl-pyridin-4-yl)-phenyl]-propionic acid] |
| 338 nM | Cc1nccc(Oc2ccc(C[C@H](NC(=O)[C@@H]3Cc4cc5c(cc4CN3C(=O)NC3CCC(F)(F)CC3)O[C@@H](c3ccc(OCc4ccc(Cl)c(Cl)c4)cc3)CO5)C(=O)O)cc2)c1C [Example 352, (S)-2-{[(3S,8S)-3-[4-(3,4-Dichloro-benzyloxy)-phenyl]-7-(4,4-difluoro-cyclohexylcarbamoyl)-2,3,6,7,8,9-hexahydro-[1,4]dioxino[2,3-g]isoquinoline-8-carbonyl]-amino}-3-[4-(2,3-dimethyl-pyridin-4-yloxy)-phenyl]-propionic acid] |
| 50 nM | Cc1nc(C(=O)N2Cc3cc4c(cc3C[C@H]2C(=O)N[C@@H](Cc2ccc(-c3ccnc(C)c3C)cc2)C(=O)O)OC[C@H](c2ccc(OC3CCC(Cl)CC3)cc2)O4)c(C)o1 (stereo partly drawn) [Example 375, (S)-2-{[(3S,8S)-3-[4-(4-Chloro-cyclohexyloxy)-phenyl]-7-(2,5-dimethyl-oxazole-4-carbonyl)-2,3,6,7,8,9-hexahydro-[1,4]dioxino[2,3-g]isoquinoline-8-carbonyl]-amino}-3-[4-(2,3-dimethyl-pyridin-4-yl)-phenyl]-propionic acid] |
| 297 nM | Cc1nc(C(=O)N2Cc3cc4c(cc3C[C@H]2C(=O)N[C@@H](Cc2ccc(-c3ccnc(C)c3C)cc2)C(=O)O)OC[C@H](c2ccc(OCc3c(F)cccc3Cl)cc2)O4)c(C)o1 [Example 360, (S)-2-{[(3S,8S)-3-[4-(2-Chloro-6-fluoro-benzyloxy)-phenyl]-7-(2,5-dimethyl-oxazole-4-carbonyl)-2,3,6,7,8,9-hexahydro-[1,4]dioxino[2,3-g]isoquinoline-8-carbonyl]-amino}-3-[4-(2,3-dimethyl-pyridin-4-yl)phenyl]-propionic acid] |
